Results as given in ChEMBL document CHEMBL1909046, “DrugMatrix in vitro pharmacology data”.

How the values were obtained:
[1] = molecular target: T1, Alpha-1D adrenergic receptor (Homo sapiens, UniProt P25100); assay type: cell membranes, HEK293, Membrane; details: hek293; note: in other assays of this panel Not Active means under 50% inhibition at 10 µM
T1 sequence (P25100 whole entry): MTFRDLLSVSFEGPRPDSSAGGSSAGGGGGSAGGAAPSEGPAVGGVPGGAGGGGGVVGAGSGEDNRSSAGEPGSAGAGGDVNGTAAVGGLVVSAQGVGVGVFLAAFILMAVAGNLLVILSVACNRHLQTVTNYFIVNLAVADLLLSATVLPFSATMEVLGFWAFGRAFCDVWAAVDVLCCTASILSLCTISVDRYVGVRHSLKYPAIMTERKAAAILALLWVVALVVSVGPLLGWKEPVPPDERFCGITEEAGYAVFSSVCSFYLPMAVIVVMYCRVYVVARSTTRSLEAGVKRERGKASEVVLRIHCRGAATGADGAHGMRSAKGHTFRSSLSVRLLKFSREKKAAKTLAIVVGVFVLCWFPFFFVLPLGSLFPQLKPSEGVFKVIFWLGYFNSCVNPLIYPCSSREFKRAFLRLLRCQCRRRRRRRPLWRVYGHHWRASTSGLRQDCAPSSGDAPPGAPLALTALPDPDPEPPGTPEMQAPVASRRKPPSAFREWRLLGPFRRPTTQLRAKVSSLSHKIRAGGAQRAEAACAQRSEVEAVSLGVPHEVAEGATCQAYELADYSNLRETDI

[2] = DRUGMATRIX: Tumor Necrosis Factor (TNF), Non-Selective radioligand binding (ligand: [125I] TNF-alpha); assay type: cell membranes, Membrane; details: u-937; Not Active = under 50% inhibition at 10 µM
D(3) dopamine receptor = D(3) dopamine receptor (Homo sapiens, UniProt P35462); experiment: DRUGMATRIX: Dopamine D3 radioligand binding (ligand: [3H] Spiperone); assay type: cell membranes, CHO, Membrane; details: cho
[3] = molecular target: Delta-type opioid receptor (Homo sapiens, UniProt P41143); assay type: cell membranes, HEK293, Membrane; details: hek293; note: in other assays of this panel Not Active means under 50% inhibition at 10 µM
[4] = molecular target: T2, Angiotensin-converting enzyme (Oryctolagus cuniculus, UniProt P12822); assay type: tissue-based, Lung;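 note: enzymatic inhibition of angiotensin-converting enzyme measured with FAPGG as the substrate; in other assays of this panel Not Active means under 50% inhibition at 10 µM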
T2 sequence (P12822 whole entry): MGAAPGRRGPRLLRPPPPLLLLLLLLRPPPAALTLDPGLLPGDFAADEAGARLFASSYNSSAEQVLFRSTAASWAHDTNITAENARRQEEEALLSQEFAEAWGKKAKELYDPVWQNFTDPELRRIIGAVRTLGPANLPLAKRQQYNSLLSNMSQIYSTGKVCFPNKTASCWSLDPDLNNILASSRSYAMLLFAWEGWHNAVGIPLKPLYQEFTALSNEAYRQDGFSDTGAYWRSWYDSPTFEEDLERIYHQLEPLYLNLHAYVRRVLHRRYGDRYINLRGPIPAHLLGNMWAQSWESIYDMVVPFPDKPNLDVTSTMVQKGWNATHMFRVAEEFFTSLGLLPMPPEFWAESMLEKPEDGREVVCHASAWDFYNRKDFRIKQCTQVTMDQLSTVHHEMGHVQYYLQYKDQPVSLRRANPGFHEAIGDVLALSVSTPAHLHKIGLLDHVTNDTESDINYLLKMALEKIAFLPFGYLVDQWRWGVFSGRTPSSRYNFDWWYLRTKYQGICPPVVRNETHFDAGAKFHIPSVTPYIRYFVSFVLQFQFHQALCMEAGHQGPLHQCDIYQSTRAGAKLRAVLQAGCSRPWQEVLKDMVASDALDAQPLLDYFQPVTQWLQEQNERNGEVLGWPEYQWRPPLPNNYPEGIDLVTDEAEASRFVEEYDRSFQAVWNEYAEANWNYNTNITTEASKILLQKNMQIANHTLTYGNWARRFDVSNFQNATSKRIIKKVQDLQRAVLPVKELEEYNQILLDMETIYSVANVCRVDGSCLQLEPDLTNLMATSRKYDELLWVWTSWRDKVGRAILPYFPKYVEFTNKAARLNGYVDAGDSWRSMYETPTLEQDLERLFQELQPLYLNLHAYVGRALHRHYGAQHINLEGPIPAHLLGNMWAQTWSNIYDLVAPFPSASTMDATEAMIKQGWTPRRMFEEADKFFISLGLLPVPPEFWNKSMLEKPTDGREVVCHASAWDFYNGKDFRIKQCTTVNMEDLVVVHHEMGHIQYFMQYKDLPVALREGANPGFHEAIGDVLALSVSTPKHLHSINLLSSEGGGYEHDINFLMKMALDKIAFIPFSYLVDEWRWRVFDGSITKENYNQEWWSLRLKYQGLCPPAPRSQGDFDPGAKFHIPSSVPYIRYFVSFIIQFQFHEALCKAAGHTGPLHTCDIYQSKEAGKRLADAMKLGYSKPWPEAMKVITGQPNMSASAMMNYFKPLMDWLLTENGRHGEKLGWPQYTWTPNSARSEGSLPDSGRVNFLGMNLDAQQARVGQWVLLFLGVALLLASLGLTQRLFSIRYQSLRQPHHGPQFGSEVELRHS

Cytochrome P450 1A2 = molecular target: T3, Cytochrome P450 1A2 (Homo sapiens, UniProt P05177); details: bti-tn-5b1-4; note: in other assays of this panel Not Active means under 50% inhibition at 10 µM
T3 sequence (P05177 whole entry): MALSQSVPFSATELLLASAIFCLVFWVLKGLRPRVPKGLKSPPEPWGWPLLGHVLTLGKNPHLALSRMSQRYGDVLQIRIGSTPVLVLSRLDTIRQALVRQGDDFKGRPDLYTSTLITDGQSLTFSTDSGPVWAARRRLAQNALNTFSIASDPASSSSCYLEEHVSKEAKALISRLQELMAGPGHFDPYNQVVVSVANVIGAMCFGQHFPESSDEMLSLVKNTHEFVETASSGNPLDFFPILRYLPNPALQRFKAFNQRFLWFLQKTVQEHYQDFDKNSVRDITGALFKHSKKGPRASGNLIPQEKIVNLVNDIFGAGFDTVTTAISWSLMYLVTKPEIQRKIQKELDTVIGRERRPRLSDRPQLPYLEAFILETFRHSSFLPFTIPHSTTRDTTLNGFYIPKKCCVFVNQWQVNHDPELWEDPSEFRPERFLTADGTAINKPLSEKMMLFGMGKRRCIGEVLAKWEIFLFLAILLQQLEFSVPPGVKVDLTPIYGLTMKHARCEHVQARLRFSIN

Chain of Delta-type opioid receptor (P41143 whole entry): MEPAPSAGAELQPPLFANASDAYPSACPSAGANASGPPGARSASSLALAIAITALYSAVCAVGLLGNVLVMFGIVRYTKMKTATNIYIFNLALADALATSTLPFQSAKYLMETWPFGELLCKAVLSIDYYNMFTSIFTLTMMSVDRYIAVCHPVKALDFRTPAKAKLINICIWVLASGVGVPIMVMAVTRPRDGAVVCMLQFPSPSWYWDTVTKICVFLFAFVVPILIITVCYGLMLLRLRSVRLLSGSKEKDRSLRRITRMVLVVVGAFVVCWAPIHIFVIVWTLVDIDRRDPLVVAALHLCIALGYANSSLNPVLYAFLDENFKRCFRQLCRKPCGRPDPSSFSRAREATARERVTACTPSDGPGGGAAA
Chain of D(3) dopamine receptor (P35462 whole entry): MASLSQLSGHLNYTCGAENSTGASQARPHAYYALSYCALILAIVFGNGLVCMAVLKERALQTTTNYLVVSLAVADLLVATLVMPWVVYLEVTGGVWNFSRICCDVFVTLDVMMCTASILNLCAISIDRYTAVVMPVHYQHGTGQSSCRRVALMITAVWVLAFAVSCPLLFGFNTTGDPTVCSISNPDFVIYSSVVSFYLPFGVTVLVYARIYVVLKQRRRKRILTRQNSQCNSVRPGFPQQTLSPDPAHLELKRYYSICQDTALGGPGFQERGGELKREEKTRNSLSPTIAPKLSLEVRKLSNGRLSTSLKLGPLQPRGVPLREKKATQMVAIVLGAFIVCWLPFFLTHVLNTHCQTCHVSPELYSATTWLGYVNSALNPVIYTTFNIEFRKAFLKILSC

CCOc1nc2cccc(C(=O)O)c2n1Cc1ccc(-c2ccccc2-c2nnn[nH]2)cc1
Not Active: IC50 [1] | IC50 [2] | Ki [2] | IC50 (D(3) dopamine receptor) | IC50 [3] | IC50 [4]

O=C(O)CCCc1cccs1
Not Active: IC50 [1] | IC50 [2] | Ki [2] | IC50 (D(3) dopamine receptor) | IC50 [3] | IC50 [4] | IC50 (Cytochrome P450 1A2) | Ki (Cytochrome P450 1A2)

COc1ccccc1N
Not Active: IC50 [1] | IC50 [2] | Ki [2] | IC50 (D(3) dopamine receptor) | IC50 [3] | IC50 [4] | IC50 (Cytochrome P450 1A2) | Ki (Cytochrome P450 1A2)

O=C(c1ccccc1F)N1CCC(Cc2ccccc2)CC1
Not Active: IC50 [1] | IC50 [2] | Ki [2] | IC50 (D(3) dopamine receptor) | IC50 [3] | IC50 [4] | IC50 (Cytochrome P450 1A2) | Ki (Cytochrome P450 1A2)

NC12CC3CC(CC(C3)C1)C2 [AMANTADINE]
Not Active: IC50 [1] | IC50 [2] | Ki [2] | IC50 (D(3) dopamine receptor) | IC50 [3] | IC50 [4]

CC(C)c1c(C(=O)Nc2ccccc2)c(-c2ccccc2)c(-c2ccc(F)cc2)n1CC[C@@H](O)C[C@@H](O)CC(=O)O [ATORVASTATIN]
Not Active: IC50 [1] | IC50 [2] | Ki [2] | IC50 (D(3) dopamine receptor) | IC50 [3] | IC50 [4]

C#C[C@]1(O)CC[C@H]2[C@@H]3CCC4=CC(=O)CC[C@]4(C)[C@H]3CC[C@@]21C [ETHISTERONE]
Not Active: IC50 [1] | IC50 [2] | Ki [2] | IC50 (D(3) dopamine receptor) | IC50 [3] | IC50 [4]

CC(C)(C(=O)O)c1ccc(C(O)CCCN2CCC(C(O)(c3ccccc3)c3ccccc3)CC2)cc1 (configuration not stated) [FEXOFENADINE]
Not Active: IC50 [1] | IC50 [2] | Ki [2] | IC50 (D(3) dopamine receptor) | IC50 [3] | IC50 [4]

CC(=O)OCC(=O)[C@@]12OC(C)(C)O[C@@H]1C[C@H]1[C@@H]3C[C@H](F)C4=CC(=O)C=C[C@]4(C)[C@@]3(F)[C@@H](O)C[C@@]12C [FLUOCINONIDE]
Not Active: IC50 [1] | IC50 [2] | Ki [2] | IC50 (D(3) dopamine receptor) | IC50 [3] | IC50 [4]

N[C@@H](Cn1ccc(=O)c(O)c1)C(=O)O [L-MIMOSINE]
Not Active: IC50 [1] | IC50 [2] | Ki [2] | IC50 (D(3) dopamine receptor) | IC50 [3] | IC50 [4]

CN(C)C(=N)NC(=N)N [METFORMIN]
Not Active: IC50 [1] | IC50 [2] | Ki [2] | IC50 (D(3) dopamine receptor) | IC50 [3] | IC50 [4]

CC(C)(C)NCC(O)COc1cccc2c1CC(O)C(O)C2 (configuration not stated) [NADOLOL]
Not Active: IC50 [1] | IC50 [2] | Ki [2] | IC50 (D(3) dopamine receptor) | IC50 [3] | IC50 [4]

C[C@@H]1C/C=C/C=C/C=C/C=C/[C@H](O[C@@H]2O[C@H](C)[C@@H](O)[C@H](N)[C@@H]2O)C[C@@H]2O[C@](O)(C[C@@H](O)C[C@H]3O[C@@H]3/C=C/C(=O)O1)C[C@H](O)[C@H]2C(=O)O [NATAMYCIN]
Not Active: IC50 [1] | IC50 [2] | Ki [2] | IC50 (D(3) dopamine receptor) | IC50 [3] | IC50 [4]

C[C@@H]1O[C@@H](O[C@H]2C[C@@H](O)[C@]3(CO)[C@H]4[C@H](O)C[C@]5(C)[C@@H](C6=CC(=O)OC6)CC[C@]5(O)[C@@H]4CC[C@]3(O)C2)[C@H](O)[C@H](O)[C@H]1O [OUABAIN]
Not Active: IC50 [1] | IC50 [2] | Ki [2] | IC50 (D(3) dopamine receptor) | IC50 [3] | IC50 [4]

N=C(N)c1ccc(OCCCCCOc2ccc(C(=N)N)cc2)cc1 [PENTAMIDINE]
Not Active: IC50 [1] | IC50 [2] | Ki [2] | IC50 [3] | IC50 [4] | IC50 (Cytochrome P450 1A2) | Ki (Cytochrome P450 1A2)
